Counter-ions that a name gives are not always drawn.
What was measured:
[1] = test system: T1, NMDA receptor; test: NMDA receptor assay (fura-2 cytosolic calcium in cultured rat cerebellar granule cells); format: cell-based; conditions: Table I, read-out: fura2 data IC50
T1 construct: fura2 data IC50; rat cerebellar granule cells
Protocol: All culture media, antibiotics, and enzymes, with the exception of fetal calf serum (Hyclone Laboratories, Logan, Utah), were purchased from Sigma Chemical Co., St. Louis, Mo. Fura-2/AM was obtained from Molecular Probes, Eugene, Oreg., and was prepared freshly in dimethylsulfoxide (DMSO) before use. Ionomycin (Calbiochem) was stored as a stock solution in DMSO. Nifedipine (Sigma) and nimodipine (RBI) were dissolved in absolute ethanol. […] All other agents were dissolved in phosphate-buffered saline (PBS), and adjusted to pH 7.4
Preparation of Rat Cerebellar Granule Cell (RCGC) Cultures
Briefly, primary cultures of cerebellar granule neurons were obtained from 8-day-old rats and plated onto squares of Aclar plastic coated with poly-L-lysine. The plastic squares were placed in 12-well culture plates, and ˜7.5×10^5 cells were added to each well. Cultures were maintained in Eagles's medium containing 25 mM KCl, 10% fetal calf serum, 2 mM glutamine, 100 μg/ml gentamicin, 50 U/ml penicillin, and 50 μg/ml streptomycin at 37° C. in a humid atmosphere of 5%CO2 in air for 24 hr before the addition of cytosine arabinoside (10 μM, final). No changes of culture medium were made until the cells were used for fluorescence recording 6-8 days after plating.
Measurement of Cytosolic Calcium
(“Ca^2+-free” buffer contained no added CaCl2 and 30 μM EGTA). The cells were then rinsed with the same buffer, lacking fura-2/AM, and maintained at room temperature until used for measurement of fluorescence, the Aclar squares were transferred into quartz cuvettes containing 2 ml of the HEPES buffer. The cuvette was then placed into a thermostatted holder equipped with a magnetic stirrer in a custom-built spectrofluorimeter (Biomedical Instrumentation Group, University of Pennsylvania, Philadelphia, Pa.). The size of the plastic Aclar square was such as to fit snugly in the cuvette when placed at a diagonal and therefore suspend itself over the spin bar. Fluorescence was measured using excitation and emission wavelengths of 340 and 510 nm, respectively. The amplitude of the evoked increase in fluorescence and subsequent inhibition were recorded and the concentration of [Ca^2+]i was calculated using the formula:
[Ca^2+]=Kd (F-Fmin)/(Fmax-F) (Eq. 1)
F=fluorescence amplitude evoked at a particular time point or concentration of compound;
Fmin=minimum fluorescence determined after the addition of a 2.5 M TRIS/0.3 M EGTA solution;
Fmax=maximum fluorescence determined following the addition of 7 mM ionomycin in DMSO; and […]

[2] = molecular target: T2, serotonin transporter site (Rattus norvegicus, UniProt P31652); test: Serotonin reuptake inhibition assay ([3H]citalopram binding, rat forebrain membranes); conditions: Table I; read-out: 5-HT Uptake Ki
T2 construct: tissue NovaScreen (performed the assay); host or cells: rat forebrain membranes
T2 sequence (P31652 whole entry): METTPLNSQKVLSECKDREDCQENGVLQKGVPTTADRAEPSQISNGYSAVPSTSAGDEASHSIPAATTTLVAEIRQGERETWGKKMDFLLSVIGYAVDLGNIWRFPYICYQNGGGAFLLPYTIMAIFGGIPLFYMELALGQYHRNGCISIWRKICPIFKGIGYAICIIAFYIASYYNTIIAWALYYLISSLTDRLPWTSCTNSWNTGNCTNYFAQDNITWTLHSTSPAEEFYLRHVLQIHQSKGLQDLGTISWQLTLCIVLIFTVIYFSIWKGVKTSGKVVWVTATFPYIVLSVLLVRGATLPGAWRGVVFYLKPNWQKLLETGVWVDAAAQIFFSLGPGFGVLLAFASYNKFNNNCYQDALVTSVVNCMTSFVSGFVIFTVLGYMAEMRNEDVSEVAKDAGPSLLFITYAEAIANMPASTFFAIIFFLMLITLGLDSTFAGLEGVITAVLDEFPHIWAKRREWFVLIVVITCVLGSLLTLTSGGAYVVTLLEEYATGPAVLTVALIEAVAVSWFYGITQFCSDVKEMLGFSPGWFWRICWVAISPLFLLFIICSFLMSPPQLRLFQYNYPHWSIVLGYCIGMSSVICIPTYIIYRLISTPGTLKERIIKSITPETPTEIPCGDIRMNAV
Protocol: (§1) Monoamine Transporter Minding Assays
(§2) Monoamine transporter binding assays (reuptake inhibition assays) were performed by NovaScreen using standard radioligand binding assays. The transporter binding assays are described briefly below:
Serotonin Reuptake Inhibition Assay
Rat forebrain membranes were incubated with 0.7 nM [^3H] citalopram, N-methyl, (70-87 Ci/mmol)in 50 mM Tris-HCl (pH 7.4), 120 mM NaCl, and 5 mM KCl at 25° C. for 60 minutes. […] Reactions were terminated by rapid vacuum filtration onto glass fiber filters.

[3] = molecular target: T3, dopamine transporter site (Cavia porcellus, UniProt H0WCX4); test: Dopamine reuptake inhibition assay ([3H]WIN 35428 binding, guinea pig striatal membranes); conditions: Table I; read-out: DA Uptake Ki
T3 construct: tissue NovaScreen (performed the assay); host or cells: guinea pig striatal membranes
T3 sequence (H0WCX4 1-619): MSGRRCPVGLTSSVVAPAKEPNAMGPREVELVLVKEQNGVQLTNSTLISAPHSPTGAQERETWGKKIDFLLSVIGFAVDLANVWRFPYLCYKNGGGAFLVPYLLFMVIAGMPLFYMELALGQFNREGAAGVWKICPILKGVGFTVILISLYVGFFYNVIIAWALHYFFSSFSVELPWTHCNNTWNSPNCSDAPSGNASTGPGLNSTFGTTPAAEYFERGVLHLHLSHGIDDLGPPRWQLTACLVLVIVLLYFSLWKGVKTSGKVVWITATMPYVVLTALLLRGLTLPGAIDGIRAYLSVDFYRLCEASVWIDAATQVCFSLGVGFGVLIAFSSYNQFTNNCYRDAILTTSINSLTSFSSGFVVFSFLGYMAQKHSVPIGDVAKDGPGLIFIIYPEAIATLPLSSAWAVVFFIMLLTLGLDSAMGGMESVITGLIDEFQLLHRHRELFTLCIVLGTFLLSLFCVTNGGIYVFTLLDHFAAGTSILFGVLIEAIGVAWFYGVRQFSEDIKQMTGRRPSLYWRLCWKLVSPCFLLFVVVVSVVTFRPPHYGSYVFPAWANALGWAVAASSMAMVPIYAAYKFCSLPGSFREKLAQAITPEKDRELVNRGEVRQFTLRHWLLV
Protocol: as §1, §2
Dopamine Reuptake Inhibition Assay:
Reactions were terminated by rapid vacuum filtration onto glass fiber filters. Bound radioactivity was determined using liquid scintillation spectrometry and experimental values were compared to control values to determine binding to the dopamine transporter site based on Madras, et al., Molec.

[4] = Solubility; format: physicochemical; conditions: hydrochloride salt

Structure (SMILES): CNCCC(c1cccc(F)c1)c1cccc(F)c1 [Compound 60, N-Methyl-3.,3-bis(3-fluorophenyl)propylamine hydrochloride]
- IC50 [1]: 416 nM
- Ki [2]: 68 nM
- Ki [3]: 914 nM
- solubility ([4]; ethanol, organic solvent or mixture, EtOH): 1000 mg/mL
- solubility ([4]; water, H2O): 2000 mg/mL
